Reference: patent US6559115B1, “Detergent tablet with high mechanical and dissolution characteristics” (The Procter & Gamble Company, priority 1998, dated 2003)

Assays:
[1] = Tablet compression and tensile strength (diametrical fracture stress); format: physicochemical; details: tensile strength increased by over 30% by 3% compound at compacting force 3000N
Description: For the purpose of this invention, the Cohesive Effect on the particulate material of a detergent matrix is characterised by the force required to break a tablet based on the examined detergent matrix pressed under controlled compression conditions. […] Means to assess tablet strength (also refer to diametrical fracture stress) are given in Pharmaceutical dosage forms: tablets volume 1 Ed. H. A. Lieberman et al, published in 1989.
The temperature of the addition is between 10 and 80 C., more pref. between 10 and 40 C.
For a cylindrical tablet, the tensile strength corresponds to the diametrical fracture stress (DFS) which is a way to express the strength of a tablet, and is determined by the following equation: [formula]
Where F is the maximum force (Newton) to cause tensile failure (fracture) measured by a VK 200 tablet hardness tester supplied by Van Kell industries, Inc. D is the diameter of the tablet, and t the thickness of the tablet.
iii) Tablets were then made the following way: 50 g of the mixture was introduced into a mould of circular shape with a diameter of 5.5 cm and compressed to give a tablet tensile strength (or diametrical fracture stress) of 15 kPa. The force required to obtain a tablet tensile strength of 15 kPa was 2400 N. The tablet height was 1.94 cm.

[2] = Conductivity test defining a highly soluble compound; format: physicochemical; details: conductivity reaches 80% of maximum in less than 10 seconds
Description: A solution is prepared as follows comprising de-ionised water as well as 20 grams per liter of a specific compound:
1—20 g of the specific compound is placed in a Sotax Beaker. This beaker is placed in a constant temperature bath set at 10° C. A stirrer with a marine propeller is placed in the beaker so that the bottom of the stirrer is at 5 mm above the bottom of the Sotax beaker. The mixer is set at a rotation speed of 200 turns per minute.
2—980 g of the de-ionised water is introduced into the Sotax beaker.
3—10 s after the water introduction, the conductivity of the solution is measured, using a conductivity meter.
4—Step 3 is repeated after 20, 30, 40, 50, 1 min, 2 min, 5 min and 10 min after step 2.
5—The measurement taken at 10 min is used as the plateau value or maximum value.

sodium di isoalkylbenzene sulphonate [Compounds of Example 1]
Cohesive effect on the particulate material [1]: having a cohesive effect
Highly soluble compound according to the invention [2]: highly soluble
